According to patent US7211573B2, “Malonamide derivatives” (Hoffmann-La Roche Inc., priority 2004, dated 2007):

Compound	melting point
Cc1cccc2c1OC[C@H](NC(=O)C(C)C(=O)NCC(F)(F)C(F)(F)F)C(=O)N2C (stereo partly drawn) [Example 10b, N-((S)-4,9-Dimethyl-8-oxo-6,7,8,9-tetrahydro-5-oxa-9-aza-benzocyclohepten-7-yl)-2-methyl-N′-(2,2,3,3,3-pentafluoro-propyl)-malonamide]	107 °C
CCN1C(=O)[C@@H](NC(=O)C(C)C(=O)NCC(F)(F)C(F)(F)F)COc2ccccc21 (stereo partly drawn) [Example 14, N-((S)-9-Ethyl-8-oxo-6,7,8,9-tetrahydro-5-oxa-9-aza-benzocyclohepten-7-yl)-2-methyl-N′-(2,2,3,3,3-pentafluoro-propyl)-malonamide]	152 °C
CC(C(=O)NCC(F)(F)C(F)(F)F)C(=O)N[C@@H]1C(=O)Nc2cc(F)ccc2O[C@@H]1C (stereo partly drawn) [Example 23, N-((6R,7S)-2-Fluoro-6-methyl-8-oxo-6,7,8,9-tetrahydro-5-oxa-9-aza-benzocyclohepten-7-yl)-2-methyl-N′-(2,2,3,3,3-pentafluoro-propyl)-malonamide]	215 to 216 °C
C[C@H](OC(=O)NCC(F)(F)C(F)(F)F)C(=O)N[C@@H]1C(=O)N(C)c2cc(F)ccc2O[C@@H]1C [Example 48, (2,2,3,3,3-Pentafluoro-propyl)-carbamic acid (S)-1-((6R,7S)-2-fluoro-6,9-dimethyl-8-oxo-6,7,8,9-tetrahydro-5-oxa-9-aza-benzocyclohepten-7-ylcarbamoyl)-ethyl ester]	148 to 150 °C

Continued, values first:

melting point	Compound
126 to 134 °C	CC(C(=O)NCC(F)(F)C(F)(F)F)C(=O)N[C@@H]1C(=O)N(C)c2c(F)cccc2O[C@@H]1C (stereo partly drawn) [Example 37, N-((6R,7S)-1-Fluoro-6,9-dimethyl-8-oxo-6,7,8,9-tetrahydro-5-oxa-9-aza-benzocyclohepten-7-yl)-2-methyl-N′-(2,2,3,3,3-pentafluoro-propyl)-malonamide]
126 to 134 °C	CC(C(=O)NCC(F)(F)C(F)(F)F)C(=O)N[C@@H]1C(=O)N(C)c2cc(F)ccc2O[C@@H]1C (stereo partly drawn) [Example 38, N-((6R,7S)-2-Fluoro-6,9-dimethyl-8-oxo-6,7,8,9-tetrahydro-5-oxa-9-aza-benzocyclohepten-7-yl)-2-methyl-N′-(2,2,3,3,3-pentafluoro-propyl)-malonamide]
